Measurements from ChEMBL document CHEMBL5331046, “Disulfiram and dithiocarbamate analogues demonstrate promising antischistosomal effects” (Eur J Med Chem, 2022).
The source made the active and inactive calls. No cut-off for these calls is given here.

Columns and labels:
Schistosoma mansoni [1] = experiment: Antischistosomal activity against Schistosoma mansoni couples assessed as reduction in pairing stability at 100 uM measured upto 72 hrs by bright field microscopy; assay type: functional
Schistosoma mansoni [2] = experiment: Antischistosomal activity against Schistosoma mansoni couples at 25 uM measured upto 72 hrs by bright field microscopy; assay type: functional, organism-based
Schistosoma mansoni [3] = experiment: Antischistosomal activity against Schistosoma mansoni couples assessed as decrease in parasite motility at 25 uM measured upto 72 hrs by bright field microscopy; assay type: functional; design: scale not given: the % may be the effect or the level left
Schistosoma mansoni [4] = experiment: Antischistosomal activity against Schistosoma mansoni couples assessed as induction of weak phenotypes at 25 uM measured upto 72 hrs by bright field microscopy; assay type: functional, organism-based
Schistosoma mansoni [5] = experiment: Antischistosomal activity against Schistosoma mansoni couples at 100 uM measured upto 72 hrs by bright field microscopy; assay type: functional, organism-based
Schistosoma mansoni [6] = experiment: Antischistosomal activity against Schistosoma mansoni couples assessed as decrease in parasite motility at 10 uM measured upto 72 hrs by bright field microscopy; assay type: functional, organism-based
Schistosoma mansoni [7] = experiment: Antischistosomal activity against Schistosoma mansoni couples assessed as decrease in parasite motility at 15 uM measured upto 72 hrs by bright field microscopy; assay type: functional; design: scale not given: the % may be the effect or the level left
Schistosoma mansoni [8] = experiment: Antischistosomal activity against Schistosoma mansoni couples assessed as decrease in parasite vitality at 15 uM measured upto 72 hrs by bright field microscopy; assay type: functional; design: scale not given: the % may be the effect or the level left
Schistosoma mansoni [9] = experiment: Antischistosomal activity against Schistosoma mansoni couples assessed as decrease in pairing stability at 15 uM measured upto 72 hrs by bright field microscopy; assay type: functional; design: scale not given: the % may be the effect or the level left
Schistosoma mansoni [10] = experiment: Antischistosomal activity against Schistosoma mansoni couples assessed as inhibition of eggs production at 15 uM measured upto 72 hrs by bright field microscopy; assay type: functional; design: scale not given: the % may be the effect or the level left
Schistosoma mansoni [11] = experiment: Antischistosomal activity against Schistosoma mansoni couples assessed as induction of phenotypes at 10 uM measured upto 72 hrs by bright field microscopy; assay type: functional, organism-based
HepG2 [12] = experiment: Cytotoxicity against human HepG2 cells assessed as reduction in cell vaibility at 100 uM by WST-1 assay; assay type: toxicity, cell-based; conditions: hepg2, 100 µM
LS174T [13] = experiment: Cytotoxicity against human LS174T cells assessed as reduction in cell viability at 100 uM by WST-1 assay; assay type: toxicity, cell-based
Schistosoma mansoni [14] = experiment: Antischistosomal activity against Schistosoma mansoni couples assessed as inhibition of eggs production at 100 uM measured upto 72 hrs by bright field microscopy; assay type: functional
Schistosoma mansoni [15] = experiment: Antischistosomal activity against Schistosoma mansoni couples assessed as decrease in parasite motility at 100 uM measured upto 72 hrs by bright field microscopy; assay type: functional
Schistosoma mansoni [16] = experiment: Antischistosomal activity against Schistosoma mansoni couples assessed as pairing instability at 50 uM measured upto 72 hrs by bright field microscopy; assay type: functional
Schistosoma mansoni [17] = experiment: Antischistosomal activity against Schistosoma mansoni couples assessed as gut dilations at 100 uM measured upto 72 hrs by bright field microscopy; assay type: functional, organism-based
Schistosoma mansoni [18] = experiment: Antischistosomal activity against Schistosoma mansoni couples assessed as decrease in parasite motility at 50 uM measured upto 72 hrs by bright field microscopy; assay type: functional; design: scale not given: the % may be the effect or the level left
Schistosoma mansoni [19] = experiment: Antischistosomal activity against Schistosoma mansoni couples assessed as inhibition of eggs production at 50 uM measured upto 72 hrs by bright field microscopy; assay type: functional, organism-based
Schistosoma mansoni [20] = experiment: Antischistosomal activity against Schistosoma mansoni couples assessed as reduction in pairing stability at 50 uM measured upto 72 hrs by bright field microscopy; assay type: functional, organism-based
Schistosoma mansoni [21] = experiment: Antischistosomal activity against Schistosoma mansoni couples assessed as decrease in parasite vitality at 10 uM measured upto 72 hrs by bright field microscopy; assay type: functional
Schistosoma mansoni [22] = experiment: Antischistosomal activity against Schistosoma mansoni couples assessed as inhibition of eggs production at 10 uM measured upto 72 hrs by bright field microscopy; assay type: functional, organism-based
Schistosoma mansoni [23] = experiment: Antischistosomal activity against Schistosoma mansoni couples assessed as reduction in pairing stability at 10 uM measured upto 72 hrs by bright field microscopy; assay type: functional, organism-based
HepG2 [24] = experiment: Cytotoxicity against human HepG2 cells assessed as reduction in cell vaibility at 25 uM by WST-1 assay; assay type: toxicity, cell-based; conditions: hepg2, 25 µM
LS174T [25] = experiment: Cytotoxicity against human LS174T cells assessed as reduction in cell vaibility at 25 uM by WST-1 assay; assay type: toxicity, cell-based
HepG2 [26] = experiment: Cytotoxicity against human HepG2 cells assessed as reduction in cell viability upto 100 uM by WST-1 assay; assay type: toxicity, cell-based; conditions: hepg2, 100 µM
LS174T [27] = experiment: Cytotoxicity against human LS174T cells assessed as reduction in cell vaibility upto 100 uM by WST-1 assay; assay type: toxicity, cell-based
Schistosoma mansoni [28] = experiment: Antischistosomal activity against Schistosoma mansoni couples at >=50 uM measured upto 72 hrs by bright field microscopy; assay type: functional, organism-based
Schistosoma mansoni [29] = experiment: Antischistosomal activity against Schistosoma mansoni couples assessed as eggs deformation at 100 uM measured upto 72 hrs by bright field microscopy; assay type: functional
Schistosoma mansoni [30] = experiment: Antischistosomal activity against Schistosoma mansoni couples assessed as gut dilations at 50 uM measured upto 72 hrs by bright field microscopy; assay type: functional, organism-based
Schistosoma mansoni [31] = experiment: Antischistosomal activity against Schistosoma mansoni couples assessed as tegument damage at 50 uM measured upto 72 hrs by bright field microscopy; assay type: functional, organism-based
Schistosoma mansoni [32] = experiment: Antischistosomal activity against Schistosoma mansoni couples assessed as intestinal dilations and tegument damage at 50 uM measured upto 72 hrs by bright field microscopy; assay type: functional, organism-based
Schistosoma mansoni [33] = experiment: Antischistosomal activity against Schistosoma mansoni couples assessed as tegument damage at 100 uM measured upto 72 hrs by bright field microscopy; assay type: functional, organism-based
Schistosoma mansoni [34] = experiment: Antischistosomal activity against Schistosoma mansoni couples assessed as tegument damage upto 100 uM measured upto 72 hrs by bright field microscopy; assay type: functional, organism-based

## CCN(CC)C(=S)SC(c1ccccc1)c1ccccc1
Schistosoma mansoni [1]
  Activity: Active

## O=C(c1ccco1)N1CCN(C(=S)SCc2ccc([N+](=O)[O-])cc2)CC1
Schistosoma mansoni [2]
  Activity: inactive

## Cl.N[C@@H](CO)C(=O)N1CCN(C(=S)SCc2ccc([N+](=O)[O-])cc2)CC1
Schistosoma mansoni [3]
  Activity: 30%
Schistosoma mansoni [4]
  Activity: Active

## S=C(SCc1ccccc1)N1CCCc2ccccc21
Schistosoma mansoni [5]
  Activity: inactive

## CCC(CC)C(=O)SCc1ccccc1
Schistosoma mansoni [5]
  Activity: Active

## O=[N+]([O-])c1ccc(CSC(=S)N2CCN(S(=O)(=O)C3CC3)CC2)cc1
Schistosoma mansoni [6]
  Activity: Active
Schistosoma mansoni [7]
  Activity: 50%
Schistosoma mansoni [8]
  Activity: 90%
Schistosoma mansoni [9]
  Activity: 20%
Schistosoma mansoni [10]
  Activity: 40%
Schistosoma mansoni [11]
  Activity: Active

## CCN(CC)C(=S)SCC(N)=O
Schistosoma mansoni [1]
  Activity: Active

## CCN(CC)C(=S)SC [METHYLDIETHYL CARBAMODITHIOATE]
HepG2 [12]
  Activity: Non-Toxic
LS174T [13]
  Activity: Non-Toxic
Schistosoma mansoni [5]
  Activity: inactive

## S=C(SCc1ccccc1)n1ccnc1
Schistosoma mansoni [1]
  Activity: Active
Schistosoma mansoni [14]
  Activity: Active

## CCC(CC)C(=S)SCc1ccccc1
Schistosoma mansoni [5]
  Activity: Active

## CCN(CC)C(=S)NCc1ccccc1
Schistosoma mansoni [5]
  Activity: inactive

## CCN(CC)C(=S)OCc1ccccc1
Schistosoma mansoni [1]
  Activity: 50%
Schistosoma mansoni [14]
  Activity: 100%

## CCN(CC)C(=S)SCc1ccc(C(=O)O)cc1
Schistosoma mansoni [5]
  Activity: inactive

## CCN(CC)C(=S)SCCC1OCCO1
Schistosoma mansoni [15]
  Activity: inactive
Schistosoma mansoni [16]
  Activity: inactive

## CCCCCCN(CCCCCC)C(=S)SCc1ccccc1
Schistosoma mansoni [5]
  Activity: inactive

## CCN(CC)C(=S)SCC(=O)OC
Schistosoma mansoni [1]
  Activity: Active

## CCN(CC)C(=S)SCCc1c[nH]c2ccccc12
Schistosoma mansoni [15]
  Activity: inactive
Schistosoma mansoni [17]
  Activity: Active

## CCN(CC)C(=S)SCCc1ccccc1
Schistosoma mansoni [1]
  Activity: 100%
Schistosoma mansoni [14]
  Activity: 100%
Schistosoma mansoni [15]
  Activity: inactive

## CCN(CC)C(=S)SCc1ccc2ccccc2c1
Schistosoma mansoni [18]
  Activity: >50%
Schistosoma mansoni [19]
  Activity: Active
HepG2 [12]
  Activity: Non-Toxic
LS174T [13]
  Activity: Non-Toxic
Schistosoma mansoni [20]
  Activity: Active

## S=C(SCc1ccccc1)N1CCCCC1
Schistosoma mansoni [1]
  Activity: Active
Schistosoma mansoni [14]
  Activity: Active

## S=C(SCc1ccccc1)N1CCN(/C=C/c2ccccc2)CC1
Schistosoma mansoni [5]
  Activity: inactive

## CCN(CC)C(=S)SCC(=O)O
Schistosoma mansoni [1]
  Activity: Active

## CCN(CC)C(=S)SCCC1OCCCO1
Schistosoma mansoni [18]
  Activity: inactive

## CCN(CC)C(=S)SCc1ccc(-c2ccccc2)cc1
Schistosoma mansoni [14]
  Activity: Active

## CCN(CC)C(=S)Sc1ccccc1
Schistosoma mansoni [1]
  Activity: inactive
Schistosoma mansoni [14]
  Activity: Active

## CSCC[C@H](N)C(=O)N1CCN(C(=S)SCc2ccc([N+](=O)[O-])cc2)CC1.Cl
Schistosoma mansoni [3]
  Activity: 60%
Schistosoma mansoni [6]
  Activity: inactive
Schistosoma mansoni [21]
  Activity: Active
Schistosoma mansoni [4]
  Activity: Active
Schistosoma mansoni [22]
  Activity: Active
Schistosoma mansoni [23]
  Activity: Active
HepG2 [24]
  Activity: Toxic
LS174T [25]
  Activity: Toxic

## CCN(CC)C(=S)SCCCc1ccccc1
Schistosoma mansoni [1]
  Activity: 100%
Schistosoma mansoni [14]
  Activity: 100%
Schistosoma mansoni [15]
  Activity: inactive

## O=[N+]([O-])c1ccc(CSC(=S)N2CCN(S(=O)(=O)c3cccc4ccccc34)CC2)cc1
Schistosoma mansoni [7]
  Activity: inactive

## CC(=O)N1CCN(C(=S)SCc2ccc([N+](=O)[O-])cc2)CC1
Schistosoma mansoni [2]
  Activity: inactive

## S=C(SCc1ccccc1)N1CCc2ccccc2C1
Schistosoma mansoni [5]
  Activity: inactive

## CCN(CC)C(=S)CCc1ccccc1
Schistosoma mansoni [5]
  Activity: inactive

## Cl.N[C@@H](Cc1ccc(O)cc1)C(=O)N1CCN(C(=S)SCc2ccc([N+](=O)[O-])cc2)CC1
Schistosoma mansoni [3]
  Activity: 30%
Schistosoma mansoni [4]
  Activity: Active

## CCN(CC)C(=S)SCc1ccc(C)cc1
HepG2 [26]
  Activity: Non-Toxic
LS174T [27]
  Activity: Non-Toxic

## O=C(C1CC1)N1CCN(C(=S)SCc2ccc([N+](=O)[O-])cc2)CC1
Schistosoma mansoni [2]
  Activity: inactive

## CCS(=O)(=O)N1CCN(C(=S)SCc2ccc([N+](=O)[O-])cc2)CC1
Schistosoma mansoni [6]
  Activity: inactive
Schistosoma mansoni [7]
  Activity: 50%
Schistosoma mansoni [8]
  Activity: 90%
Schistosoma mansoni [9]
  Activity: 20%
Schistosoma mansoni [10]
  Activity: 40%
Schistosoma mansoni [11]
  Activity: inactive

## CN1CCN(C(=S)SCc2ccccc2)CC1
Schistosoma mansoni [28]
  Activity: Active

## CCCCS(=O)(=O)N1CCN(C(=S)SCc2ccc([N+](=O)[O-])cc2)CC1
Schistosoma mansoni [6]
  Activity: Active
Schistosoma mansoni [7]
  Activity: 50%
Schistosoma mansoni [8]
  Activity: 90%
Schistosoma mansoni [9]
  Activity: 20%
Schistosoma mansoni [10]
  Activity: 40%
Schistosoma mansoni [11]
  Activity: Active

## CCN(CC)C(=S)SCCCCc1ccccc1
Schistosoma mansoni [1]
  Activity: inactive
Schistosoma mansoni [14]
  Activity: Active

## CCN1CCN(C(=S)SCc2ccccc2)CC1
Schistosoma mansoni [28]
  Activity: Active

## CCCCCN(CCCCC)C(=S)SCc1ccccc1
Schistosoma mansoni [5]
  Activity: inactive

## CCN(CC)C(=S)SCCN1CCOCC1
Schistosoma mansoni [1]
  Activity: inactive
Schistosoma mansoni [29]
  Activity: Active

## Cc1ccc(CN2CCN(C(=S)SCc3ccccc3)CC2)cc1
Schistosoma mansoni [5]
  Activity: Active

## CCN(CC)C(=S)SCCCCCc1ccccc1
Schistosoma mansoni [1]
  Activity: inactive
Schistosoma mansoni [14]
  Activity: Active

## S=C(SCc1ccccc1)N1CCN(c2ncccn2)CC1
Schistosoma mansoni [5]
  Activity: Active

## CCCN1CCN(C(=S)SCc2ccccc2)CC1
Schistosoma mansoni [28]
  Activity: Active

## CCN(CC)C(=O)SCc1ccccc1
Schistosoma mansoni [14]
  Activity: ~90%

## CCN(CC)C(=O)OCc1ccccc1
Schistosoma mansoni [29]
  Activity: ~100%

## CN(C)C(=S)SCc1ccccc1
Schistosoma mansoni [1]
  Activity: Active
Schistosoma mansoni [29]
  Activity: Active

## CCN(CC)C(=S)SCc1ccc(C#N)cc1
Schistosoma mansoni [3]
  Activity: Active
Schistosoma mansoni [19]
  Activity: Active
Schistosoma mansoni [20]
  Activity: Active
Schistosoma mansoni [30]
  Activity: Active
Schistosoma mansoni [31]
  Activity: Active
Schistosoma mansoni [32]
  Activity: Active

## CCN(CC)C(=S)SCc1cccc2ccccc12
Schistosoma mansoni [18]
  Activity: ~30%

## CCN(CC)C(=S)SCc1ccncc1
Schistosoma mansoni [5]
  Activity: inactive

## CCN(CC)/C(=N/C#N)NCc1ccccc1
Schistosoma mansoni [5]
  Activity: inactive

## CCN(CC)C(=S)S/C=C/c1ccccc1
Schistosoma mansoni [33]
  Activity: Active

## CCN(CC)C(=S)SCCC1SCCS1
Schistosoma mansoni [15]
  Activity: >60%
Schistosoma mansoni [16]
  Activity: >90%
Schistosoma mansoni [34]
  Activity: Active
HepG2 [26]
  Activity: Non-Toxic
LS174T [27]
  Activity: Non-Toxic

## S=C(SCc1ccccc1)n1cnnc1
Schistosoma mansoni [5]
  Activity: inactive
